Assay results taken from patent US20240360151A1 (SANOFI, priority 2023, published 2024).

Biological target: T1, NLRP3 inflammasome (Homo sapiens, UniProt Q96P20)
T1 construct: endogenous in cells; host or cells: THP-1 monocytic cells
Experiment: IL-1β secretion assay (NLRP3 IC50) in LPS-primed, nigericin-activated THP-1 cells, HTRF
Type: cell-based
Conditions: monocytic THP-1 cells; LPS 10 ng/mL 3 h priming, then compound + nigericin 10 μM 2 h; relative IC50, 10 concentrations, geometric mean
Experimental: Monocytic THP-1 cells were maintained in RPMI 1640 media (Gibco 21875)+10% FBS, (Gibco 10500)+1% penicillin/streptomycin (Gibco 15140-122). Cells were then plated at 40,000 cells per well in 384-well cell culture plates (CoRNning 3542) and maintained with RPMI1640 (Gibco 11835)+5% FBS (Gibco 10500). Activation of the NLRP3 inflammasome requires both an NF-kB-dependent priming step and the addition of a NLRP3 activator. The priming step was induced by LPS (10 ng/mL, InvivoGen ref tlrl-3pelps) for 3 h at 37° C., then compound, in a 1:3 serial dilution series in DMSO (final concentration DMSO 0.1%), and the activator nigericin (Sigma Aldrich, ref: SML1779) 10 μM (final concentration) were added to the cells and co-incubated for 2 hours. 16 μL supernatant was removed, and IL-1β levels were monitored using an HTRF assay (Human IL1b Kits HTRF Cisbio ref: 62HILBPEH) according to manufacturers' instructions.
Data were expressed as percentage of inhibition (I %) as compared to a maximum signal control containing no small molecule (I %=0%) according to the formula: 1%=(1−((Sample−Min))/((Max−Min)))×100, where: • Sample: Signal obtained in the presence of each compound tested, • Max: Maximum signal in the absence of compound added, • Min: Minimum or background signal obtained in the absence of activation signal.
Relative IC50 (IC50 rel) were obtained from a dose response curve with 10 concentrations. Final IC50 rels are expressed as the geometric mean.
Relative IC50 values were estimated with Biost@t-SPEED v2.4 internal software based on SAS system using the 4-parameter logistic model according to Ratkovsky and Reedy (D. A. Ratkovsky, T. J. Reedy, Choosing near-linear parameters in the four parameters logistic model radioligands and related assays. Biometrics, 42 (1986), 575-582): Y=A+C/((1+exp(−B*(log(X)−M)))), where: • A: Lower asymptote (BOTTOM), • A+C: Upper asymptote (TOP), • M: the logarithm of the concentration estimated at the inflexion point (the logarithm of the relative IC50), • B: Slope at the inflexion point of the curve.

T1 sequence (Q96P20 whole entry): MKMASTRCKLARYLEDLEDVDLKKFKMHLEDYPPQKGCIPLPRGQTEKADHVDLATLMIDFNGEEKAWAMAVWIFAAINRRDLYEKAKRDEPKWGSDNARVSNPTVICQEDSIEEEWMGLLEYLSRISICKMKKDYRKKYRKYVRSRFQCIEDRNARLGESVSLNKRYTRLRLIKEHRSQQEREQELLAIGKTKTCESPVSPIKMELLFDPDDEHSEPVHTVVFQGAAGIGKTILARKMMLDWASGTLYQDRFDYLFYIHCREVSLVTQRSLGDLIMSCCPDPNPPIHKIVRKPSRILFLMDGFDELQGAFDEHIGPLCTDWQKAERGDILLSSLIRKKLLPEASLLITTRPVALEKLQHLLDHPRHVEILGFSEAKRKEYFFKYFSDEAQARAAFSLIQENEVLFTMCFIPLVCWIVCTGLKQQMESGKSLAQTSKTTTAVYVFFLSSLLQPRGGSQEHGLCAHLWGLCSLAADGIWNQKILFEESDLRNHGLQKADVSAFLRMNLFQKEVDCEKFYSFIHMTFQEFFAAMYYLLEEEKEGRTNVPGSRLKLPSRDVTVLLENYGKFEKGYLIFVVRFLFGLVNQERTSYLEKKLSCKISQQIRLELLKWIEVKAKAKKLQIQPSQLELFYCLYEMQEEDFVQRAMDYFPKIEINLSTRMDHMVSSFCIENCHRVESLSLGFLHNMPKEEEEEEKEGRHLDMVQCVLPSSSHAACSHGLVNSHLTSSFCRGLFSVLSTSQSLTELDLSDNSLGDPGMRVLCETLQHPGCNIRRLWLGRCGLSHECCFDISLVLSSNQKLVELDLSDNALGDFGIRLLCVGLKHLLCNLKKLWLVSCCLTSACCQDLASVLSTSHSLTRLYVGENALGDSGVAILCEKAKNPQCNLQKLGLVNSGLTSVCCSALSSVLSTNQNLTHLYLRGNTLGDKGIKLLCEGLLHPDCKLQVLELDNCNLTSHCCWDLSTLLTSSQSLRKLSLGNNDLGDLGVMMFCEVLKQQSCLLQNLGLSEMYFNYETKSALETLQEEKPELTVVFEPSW

SMILES | IC50 [nM]
Cc1cc(C)c(-c2cc(C(F)F)c(N3CC[C@H]4CCN(C)C[C@H]43)nn2)c(O)c1 (single isomer, unassigned) [Example 487] | 1
Cc1cc(N2CCO[C@@H]3CCN(C)C[C@@H]32)nnc1-c1ccc(F)cc1O [Example 480, 2-[6-[(4aS,8aR)-6-methyl-3,4a,5,7,8,8a-hexahydro-2H-pyrido[4,3-b][1,4]oxazin-4-yl]-4-methyl-pyridazin-3-yl]-5-fluoro-phenol] | 6
Cc1cc(Cl)cc(O)c1-c1ccc(N2CCO[C@H](CF)C2)nn1 [Example 339, 5-chloro-2-[6-[(2S)-2-(fluoromethyl)morpholin-4-yl]pyridazin-3-yl]-3-methyl-phenol] | 133
CC(=O)N1CCC[C@H]2[C@@H]1CCCN2c1ccc(-c2c(C)cc(C(F)(F)F)cc2O)nn1 [Example 463, 1-[(4aS,8aS)-5-[6-[2-hydroxy-6-methyl-4-(trifluoromethyl)phenyl]pyridazin-3-yl]-2,3,4,4a,6,7,8,8a-octahydro-1,5-naphthyridin-1-yl]ethanone] | 3780
CC(=O)N1CC[C@H]2OCCN(c3ccc(-c4c(C)cccc4O)nn3)[C@H]2C1 [Example 409, 1-[(4aS,8aR)-4-[6-(2-hydroxy-6-methyl-phenyl)pyridazin-3-yl]-3,4a,5,7,8,8a-hexahydro-2H-pyrido[4,3-b][1,4]oxazin-6-yl]ethanone] | 638
CCN1CC[C@@H]2CCN(c3cc(C(F)F)c(-c4ccc(C(F)(F)F)cc4O)nn3)[C@@H]2C1 (single isomer, unassigned) [Example 485] | 45
Oc1cc(Cl)cc(Cl)c1-c1ccc(N2CCC(F)(F)CC2)nn1 [Example 49, 3,5-dichloro-2-[6-(4,4-difluoro-1-piperidyl)pyridazin-3-yl]phenol] | 672
Cc1ccc(-c2cc(C)c(N3CCO[C@H](CO)C3)nn2)c(O)c1 [Example 110, 2-[6-[(2S)-2-(hydroxymethyl)morpholin-4-yl]-5-methyl-pyridazin-3-yl]-5-methyl-phenol] | 3760
CCc1cccc(O)c1-c1cc(C)c(N2CCO[C@@H]3CCN(C)C[C@@H]32)nn1 [Example 439, 2-[6-[(4aS,8aR)-6-methyl-3,4a,5,7,8,8a-hexahydro-2H-pyrido[4,3-b][1,4]oxazin-4-yl]-5-methyl-pyridazin-3-yl]-3-ethyl-phenol] | 569
CCN1CC[C@H]2CCN(c3cc(C)c(-c4ccc(C)cc4O)nn3)[C@H]2C1 (racemic) [Example 460, 2-[6-[rac-(3aS,7aR)-6-ethyl-3,3a,4,5,7,7a-hexahydro-2H-pyrrolo[2,3-c]pyridin-1-yl]-4-methyl-pyridazin-3-yl]-5-methyl-phenol] | < 0.3
Cc1cc(C)c(-c2cc(C)c(N3CCO[C@H](CO)C3)nn2)c(O)c1 [Example 109, 2-[6-[(2S)-2-(hydroxymethyl)morpholin-4-yl]-5-methyl-pyridazin-3-yl]-3,5-dimethyl-phenol] | 89
CC(=O)N1CC[C@@H]2OCCN(c3ccc(-c4c(C)cc(C(F)(F)F)cc4O)nn3)[C@H]2C1 (single isomer, unassigned) [Example 349] | 953
Cc1cc(Cl)cc(O)c1-c1ccc(N2CC[C@H]3CCN(C)C[C@H]32)nn1 (single isomer, unassigned) [Example 503] | 0.5
Cc1cc(C(F)(F)F)cc(O)c1-c1ccc(N2CC[C@@H](O)CC2=O)nn1 [Example 316, (4R)-4-hydroxy-1-[6-[2-hydroxy-6-methyl-4-(trifluoromethyl)phenyl]pyridazin-3-yl]piperidin-2-one] | 287
CCc1cc(Cl)cc(O)c1-c1ccc(N2CCO[C@@H]3CCN(CC)C[C@@H]32)nn1 [Example 526, 2-[6-[(4aS,8aR)-6-ethyl-3,4a,5,7,8,8a-hexahydro-2H-pyrido[4,3-b][1,4]oxazin-4-yl]pyridazin-3-yl]-5-chloro-3-ethyl-phenol] | 1
CN(C)C[C@H]1CCCN(c2ccc(-c3c(O)cc(Cl)cc3Cl)nn2)C1 [Example 50, 3,5-dichloro-2-[6-[(3R)-3-[(dimethylamino)methyl]-1-piperidyl]pyridazin-3-yl]phenol] | 549
CNCC[C@H]1CN(c2ccc(-c3c(C)cc(C(F)(F)F)cc3O)nn2)CCO1 (single isomer, unassigned) [Example 332] | 396
Cc1cc(C(F)(F)F)cc(O)c1-c1ccc(N2CCO[C@@H](CF)C2)nn1 (single isomer, unassigned) [Example 283] | 135
CCc1cc(N2CCO[C@@H]3CCN(C)C[C@@H]32)nnc1-c1ccc(C)cc1O [Example 470, 2-[6-[(4aS,8aR)-6-methyl-3,4a,5,7,8,8a-hexahydro-2H-pyrido[4,3-b][1,4]oxazin-4-yl]-4-ethyl-pyridazin-3-yl]-5-methyl-phenol] | 0.38
CN1CC[C@@H]2CCN(c3cc(C(F)F)c(-c4ccc(C(F)(F)F)cc4O)nn3)[C@@H]2C1 (single isomer, unassigned) [Example 482] | 172
CC(=O)N1CC[C@H]2CCN(c3ccc(-c4c(C)cc(C(F)(F)F)cc4O)nn3)[C@H]2C1 [Example 369, 1-[(3aR,7aR)-1-[6-[2-hydroxy-6-methyl-4-(trifluoromethyl)phenyl]pyridazin-3-yl]-3,3a,4,5,7,7a-hexahydro-2H-pyrrolo[2,3-c]pyridin-6-yl]ethanone] | 476
CC(=O)N1CC[C@H]2CCN(c3cc(C)c(-c4ccc(C)cc4O)nn3)[C@H]2C1 [Example 457, 1-[(3aR,7aR)-1-[6-(2-hydroxy-4-methyl-phenyl)-5-methyl-pyridazin-3-yl]-3,3a,4,5,7,7a-hexahydro-2H-pyrrolo[2,3-c]pyridin-6-yl]ethenone] | 432
Cc1cc(C)c(-c2ccc(N3CC4CCC3CN(C)C4)nn2)c(O)c1 (stereo not shown) [Example 410, 3,5-dimethyl-2-[6-(3-methyl-3,6-diazabicyclo[3.2.2]nonan-6-yl)pyridazin-3-yl]phenol] | 2180

Results, then the molecule that gave them:

IC50 [nM] | SMILES
752 | Cc1cc(C)c(-c2ccc(N3CCOC([C@H](C)O)C3)nn2)c(O)c1 (single isomer, unassigned) [Example 99]
1220 | Cc1cc(C)c(-c2ccc(N3CCC[C@H]4CCN(C)C[C@H]43)nn2)c(O)c1 [Example 518, 2-[6-[(4aS,8aS)-7-methyl-2,3,4,4a,5,6,8,8a-octahydro-1,7-naphthyridin-1-yl]pyridazin-3-yl]-3,5-dimethyl-phenol]
1960 | Cc1cc(C)c(-c2ccc(N3CCC(C#N)CC3)nn2)c(O)c1 [Example 2, 1-[6-(2-hydroxy-4,6-dimethyl-phenyl)pyridazin-3-yl]piperidine-4-carbonitrile]
4670 | Cc1cc(C)c(-c2ccc(N3CCCC4(COCCN4C)C3)nn2)c(O)c1 (stereo not shown) [Example 441, 3,5-dimethyl-2-[6-(1-methyl-4-oxa-1,8-diazaspiro[5.5]undecan-8-yl)pyridazin-3-yl]phenol]
614 | Cc1cc(C)c(-c2ccc(N3CCO[C@H](CN)C3)nn2)c(O)c1 [Example 89]
511 | Cc1cc(C)c(-c2ccc(N3CCO[C@@H]4CCNC[C@@H]43)nn2)c(O)c1 [Example 315, 2-[6-[(4aS,8aR)-2,3,4a,5,6,7,8,8a-octahydropyrido[4,3-b][1,4]oxazin-4-yl]pyridazin-3-yl]-3,5-dimethyl-phenol]
335 | CC(=O)NC[C@H]1CN(c2ccc(-c3c(C)cc(C)cc3O)nn2)CCO1 [Example 105, N-[[(2S)-4-[6-(2-hydroxy-4,6-dimethyl-phenyl)pyridazin-3-yl]morpholin-2-yl]methyl]acetamide]
1170 | Cc1cc(C)c(-c2ccc(N3CCO[C@@H](CC(=O)N(C)C)C3)nn2)c(O)c1 (single isomer, unassigned) [Example 151]
857 | Cc1cc(C)c(-c2ccc(N3C[C@@H](O)CO3)nn2)c(O)c1 [Example 113, (4R)-2-[6-(2-hydroxy-4,6-dimethyl-phenyl)pyridazin-3-yl]isoxazolidin-4-ol]
7490 | CC(=O)N1C[C@@H]2OCCN(c3ccc(-c4c(C)cc(C)cc4O)nn3)[C@H]2C1 (racemic) [Example 257, 1-[rac-(4aS,7aS)-4-[6-(2-hydroxy-4,6-dimethylphenyl)pyridazin-3-yl]-2,3,4a,5,7,7a-hexahydropyrrolo[3,4-b][1,4]oxazin-6-yl]ethanone]
20 | Cc1cc(C)c(-c2ccc(N3CCO[C@@H]4CCN(CCCF)C[C@@H]43)nn2)c(O)c1 [Example 527, 2-[6-[(4aS,8aR)-6-(3-fluoropropyl)-3,4a,5,7,8,8a-hexahydro-2H-pyrido[4,3-b][1,4]oxazin-4-yl]pyridazin-3-yl]-3,5-dimethyl-phenol]
